Data taken from US20230248759A1, “ORAL RINSE COMPOSITIONS FOR ALLEVIATING XEROSTOMIA COMPRISING POLYETHYLENE GLYCOL DERIVATIVES” (SunBio Inc., priority 2021, published 2023).

System: cultured cells (L-929)
Experiment: Cytotoxicity test, liquid sample (dilution type), ISO 10993
Type: cell-based
Conditions: L-929, liquid test, 0.025 g/ml in media for test material
Description: The cytotoxicity test is a test to confirm the safety of the composition according to the present invention, and the presence and degree of a cytotoxic reaction in cultured cells (L-929) was evaluated. A good laboratory practice (GLP) institution was commissioned to perform the test according to each test method presented in ISO 10993.
5-2. Test Method of Liquid Sample: A liquid test solution was prepared in which a dilution solution (2× E-MEM+10% FBS) and the liquid test material were combined/diluted in a 1:1 ratio. The culture medium of cell L-929 was removed from the plate well, replaced with 1 mL of test solution and control medium (diluent), and then the cells were cultured. During culturing, microscopic examinations were carried out every 24, 48, 72±4 hours to evaluate cytotoxicity. Cadmium chloride (100 uM CdCl2) as a positive control and E-MEM+5% FBS as a negative control were also used in the test.
As the evaluation criteria of the cytotoxicity test, a score of 0 to 4 was recorded by evaluating the morphological change of cells and the degree of change in viable cells according to lysis or separation. Scores 3 and 4 were judged to be cytotoxic, and scores of 1 and 2 were judged to be non-cytotoxic.

[Cl][Cd][Cl] [Positive Control, Cadmium chloride]
0/0/0: Cytotoxicity Score 24 hr (24 hr) | Cytotoxicity Score 48 hr (48 hr) | Cytotoxicity Score 72 hr (72 hr)
